Activity calls are given as the source filed them.
What was measured:
[1] = biological target: DNA damage-inducible transcript 3 protein (Mus musculus, UniProt P35639); format: functional, Cricetulus griseus
[2] = alpha-synuclein stem-loop luciferase translation blockers – H4 neuroglioma cells, luminescence, confirmation (AID 1988); format: functional, cell-based
[3] = HEK-293T viability loss after treatment – luminescence, T-cell screen hits, cytotoxicity control for TCR NF-kB inhibitor project, dose response (AID 489026); format: functional, cell-based;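 also: cells exposed to compound about 14 hours before the viability readout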
[4] = Luminescence Cell-Based Dose Response HTS to Identify Inhibitors of 5'UTR Stem-Loop Driven Prion Protein mRNA Translation in H4 Neuroglioblastoma Cells. [Related pubchem assays: 1827 (Project Summary), 1813 (Primary HTS)]; format: functional
[5] = alpha-synuclein stem-loop translation blockers – luminescence, H4 neuroglioblastoma cells, dose confirmation, confirmation (AID 2454); format: functional, cell-based;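 also: H4 neuroglioblastoma cells carrying an alpha-synuclein 5'UTR luciferase reporter; potency for inhibition of the luciferase signal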
[6] = system: J774.A1; assay: Confirmation of image-based Screening Assay for Inhibitors of Phagocytosis. [Related pubchem assays (depositor defined):AID1029, AID1643]; format: functional, cell-based; conditions: Mus musculus
[7] = viability loss of HPDE-C7K cells – cell-based, fluorescence, HTS, primary screen (AID 431); format: functional; conditions: Homo sapiens
[8] = cells; format: functional, cell-based
[9] = IC50 of Artemis nuclease activity blockers – biochemical, fluorescence intensity, dose response (AID 720701); format: functional;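 also: Artemis endonuclease enzyme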
[10] = luciferase reporter signal suppression in cells – H4 neuroglioma cells, luminescence, dose response (AID 1990); format: functional, cell-based
[11] = HPDE-C7 pancreatic duct cell viability loss – fluorescence, HTS (AID 430); format: functional, cell-based; conditions: Homo sapiens
[12] = luciferase reporter signal reduction – luminescence, H4-C neuroglioblastoma cells, dose response (AID 2458); format: functional, cell-based;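 also: H4 neuroglioblastoma cells stably carrying a luciferase reporter gene fusion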
[13] = biological target: Type-1 angiotensin II receptor (Homo sapiens, UniProt P30556); assay: agonist activity at AGTR1 – cell-based, uHTS hits, selectivity assay for APJ receptor agonist project, dose response (AID 488865); format: functional;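 also: beta-arrestin recruitment to AT1 measured by enzyme fragment complementation luminescence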
Sequence of Type-1 angiotensin II receptor (P30556 whole entry, the tested form may be a part): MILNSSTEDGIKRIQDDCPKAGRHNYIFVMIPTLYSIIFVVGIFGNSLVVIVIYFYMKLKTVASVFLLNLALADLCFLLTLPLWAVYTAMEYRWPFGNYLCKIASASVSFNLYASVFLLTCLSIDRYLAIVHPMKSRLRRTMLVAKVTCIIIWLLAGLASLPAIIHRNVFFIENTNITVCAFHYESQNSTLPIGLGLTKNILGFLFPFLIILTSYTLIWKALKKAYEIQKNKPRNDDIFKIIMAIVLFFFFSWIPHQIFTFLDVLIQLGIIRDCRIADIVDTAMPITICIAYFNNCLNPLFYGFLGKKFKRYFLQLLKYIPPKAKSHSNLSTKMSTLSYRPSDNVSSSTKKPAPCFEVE

[14] = system: Streptococcus sp. 'group A'; assay: Streptococcus pyogenes SK(-)GAS viability under kanamycin – luminescence, BacTiterGlo, confirmation, counter-screen for streptokinase expression inhibitor project, dose response (AID 1900); format: functional, organism-based; conditions: Streptococcus sp. 'group A'
[15] = biological target: T1, G-protein coupled receptor 55 (Homo sapiens, UniProt Q9Y2T6); assay: inhibition of LPI-stimulated GPR55 beta-arrestin translocation – imaging, U2OS, beta-arrestin-GFP, LPI agonist, primary screen (AID 2013); format: functional;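 also: antagonist potency measured as reduced agonist-driven arrestin aggregation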
T1 sequence (Q9Y2T6 whole entry): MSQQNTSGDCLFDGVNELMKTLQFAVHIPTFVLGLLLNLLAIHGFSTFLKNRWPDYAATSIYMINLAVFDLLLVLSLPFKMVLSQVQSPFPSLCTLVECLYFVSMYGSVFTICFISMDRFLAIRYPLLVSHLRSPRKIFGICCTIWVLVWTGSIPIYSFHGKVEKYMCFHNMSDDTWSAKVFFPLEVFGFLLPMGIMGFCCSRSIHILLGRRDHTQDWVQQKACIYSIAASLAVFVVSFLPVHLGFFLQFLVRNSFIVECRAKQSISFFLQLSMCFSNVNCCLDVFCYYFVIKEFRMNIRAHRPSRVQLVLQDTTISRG

[16] = system: Streptococcus; assay: GAS UMAA2166 growth inhibition – luminescence, BacTiterGlo, counter-screen for streptokinase expression inhibitor project, dose response (AID 1915); format: functional, organism-based; conditions: Streptococcus;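 also: potency for reduction of bacterial viability or growth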
[17] = biological target: T2, Streptokinase A (Streptococcus pyogenes serotype M1, UniProt P10520); assay: viability-normalized secreted streptokinase activity reduction – plasminogen activation absorbance, OD405, dose response (AID 1914); format: functional, Streptococcus pyogenes M1 GAS;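 also: secreted streptokinase activity via plasminogen activation per viability signal from cell pellet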
T2 sequence (P10520 whole entry): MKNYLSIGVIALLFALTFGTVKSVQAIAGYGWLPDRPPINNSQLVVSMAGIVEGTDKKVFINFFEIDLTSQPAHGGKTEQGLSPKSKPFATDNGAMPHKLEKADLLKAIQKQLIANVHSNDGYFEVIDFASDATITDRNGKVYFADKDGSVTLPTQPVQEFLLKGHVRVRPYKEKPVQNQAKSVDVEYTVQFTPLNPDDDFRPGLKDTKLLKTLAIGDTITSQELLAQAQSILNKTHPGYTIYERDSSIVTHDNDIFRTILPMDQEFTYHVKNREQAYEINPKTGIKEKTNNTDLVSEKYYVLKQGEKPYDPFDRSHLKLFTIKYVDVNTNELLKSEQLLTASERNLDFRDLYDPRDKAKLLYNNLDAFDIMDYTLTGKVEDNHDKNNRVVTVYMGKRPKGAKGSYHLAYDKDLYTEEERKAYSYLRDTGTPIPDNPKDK

[18] = biological target: Hexokinase (Trypanosoma brucei, UniProt Q38C41); assay: Confirmation assay for inhibitors of Trypanosoma brucei hexokinase 1-Analogue-first series. [Related pubchem assays (depositor defined):AID1430, AID1632, AID2516, AID2560, AID2579, AID2600, AID449725, AID492951]; format: functional
Sequence of Hexokinase (Q38C41 whole entry): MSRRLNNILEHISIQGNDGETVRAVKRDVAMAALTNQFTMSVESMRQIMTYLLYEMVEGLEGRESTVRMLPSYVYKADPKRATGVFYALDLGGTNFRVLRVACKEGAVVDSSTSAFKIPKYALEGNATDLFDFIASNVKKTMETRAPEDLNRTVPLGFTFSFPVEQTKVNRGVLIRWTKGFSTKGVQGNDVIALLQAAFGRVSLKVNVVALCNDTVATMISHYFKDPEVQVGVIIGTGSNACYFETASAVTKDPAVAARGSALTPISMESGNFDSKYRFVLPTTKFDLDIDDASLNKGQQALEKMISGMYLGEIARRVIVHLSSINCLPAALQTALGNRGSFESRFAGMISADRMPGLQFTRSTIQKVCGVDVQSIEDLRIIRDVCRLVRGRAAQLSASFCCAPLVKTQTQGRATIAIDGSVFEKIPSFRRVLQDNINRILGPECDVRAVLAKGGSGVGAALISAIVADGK

[19] = biological target: Dual specificity tyrosine-phosphorylation-regulated kinase 1A (Rattus norvegicus, UniProt Q63470); format: biochemical, Homo sapiens
[20] = Luminescence Cell-Based Dose Retest to Confirm Inhibitors of Cancer Stem Cells. [Related pubchem assays (depositor defined):AID2717, AID2721]; format: functional, Homo sapiens; conditions: Homo sapiens
[21] = biological target: Integrin alpha-4 (Homo sapiens, UniProt P13612); assay: allosteric modulators of alpha4 integrin VLA-4 – cell-based, LIBS antibody binding, flow cytometry, SAR follow-up (AID 488791); format: functional
Sequence of Integrin alpha-4 (P13612 whole entry): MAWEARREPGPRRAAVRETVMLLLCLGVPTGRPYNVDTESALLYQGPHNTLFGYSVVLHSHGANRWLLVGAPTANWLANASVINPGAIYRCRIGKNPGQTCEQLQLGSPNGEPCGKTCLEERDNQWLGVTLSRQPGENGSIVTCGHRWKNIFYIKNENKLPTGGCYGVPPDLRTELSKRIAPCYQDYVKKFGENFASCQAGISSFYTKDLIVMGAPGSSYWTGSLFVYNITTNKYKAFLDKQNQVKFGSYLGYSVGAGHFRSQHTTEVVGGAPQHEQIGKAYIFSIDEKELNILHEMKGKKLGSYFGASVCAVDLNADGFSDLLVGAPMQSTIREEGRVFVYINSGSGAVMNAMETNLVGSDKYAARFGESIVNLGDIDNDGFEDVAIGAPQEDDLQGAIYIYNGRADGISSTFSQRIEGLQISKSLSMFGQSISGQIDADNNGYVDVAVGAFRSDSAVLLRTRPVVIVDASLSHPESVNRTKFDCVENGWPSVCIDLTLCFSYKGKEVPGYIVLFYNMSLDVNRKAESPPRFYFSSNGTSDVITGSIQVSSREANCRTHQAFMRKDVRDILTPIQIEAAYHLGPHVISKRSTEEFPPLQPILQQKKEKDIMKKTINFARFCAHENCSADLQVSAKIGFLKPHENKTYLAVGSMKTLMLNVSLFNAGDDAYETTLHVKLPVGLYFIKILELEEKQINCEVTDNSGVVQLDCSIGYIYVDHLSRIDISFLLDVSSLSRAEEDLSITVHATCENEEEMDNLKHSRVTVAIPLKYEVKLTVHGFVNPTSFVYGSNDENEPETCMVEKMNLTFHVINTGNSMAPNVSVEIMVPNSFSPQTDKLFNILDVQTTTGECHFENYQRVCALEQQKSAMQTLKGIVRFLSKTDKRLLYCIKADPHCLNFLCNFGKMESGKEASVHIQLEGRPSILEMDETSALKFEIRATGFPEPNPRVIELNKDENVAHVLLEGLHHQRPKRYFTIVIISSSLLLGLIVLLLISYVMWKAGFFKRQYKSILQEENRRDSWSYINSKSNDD

[22] = biological target: T3, Ubiquitin-conjugating enzyme E2 N (Homo sapiens, UniProt P61088); format: functional;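 also: Dose-response confirmation in a TR-FRET assay detecting UBC13-driven polyubiquitin chain formation, inhibition measured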
T3 sequence (P61088 whole entry): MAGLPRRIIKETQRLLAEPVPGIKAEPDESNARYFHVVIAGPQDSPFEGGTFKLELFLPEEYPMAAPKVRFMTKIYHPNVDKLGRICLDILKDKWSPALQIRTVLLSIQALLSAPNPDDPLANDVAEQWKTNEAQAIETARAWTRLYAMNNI

[23] = biological target: T4, Tyrosine-protein phosphatase non-receptor type 7 (Homo sapiens, UniProt P35236); assay: SAR analysis of chemical inhibitors of HePTP using a Fluorescent assay - Set 2. [Related pubchem assays (depositor defined):AID1059, AID1077, AID1661, AID2085, AID521]; format: functional
T4 sequence (P35236 whole entry): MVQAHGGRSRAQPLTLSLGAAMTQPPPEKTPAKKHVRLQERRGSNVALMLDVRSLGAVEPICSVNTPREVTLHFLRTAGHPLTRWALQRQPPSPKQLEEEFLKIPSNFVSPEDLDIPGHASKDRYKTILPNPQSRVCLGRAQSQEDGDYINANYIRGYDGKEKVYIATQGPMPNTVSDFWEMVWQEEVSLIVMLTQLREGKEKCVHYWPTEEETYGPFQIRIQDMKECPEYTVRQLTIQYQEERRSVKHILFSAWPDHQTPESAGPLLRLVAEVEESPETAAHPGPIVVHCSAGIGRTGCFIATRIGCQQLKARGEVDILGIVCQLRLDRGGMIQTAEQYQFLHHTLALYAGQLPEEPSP

[24] = biological target: Dual specificity protein phosphatase 3 (Homo sapiens, UniProt P51452); assay: SAR VHR1 Fluorescent Assay for In Vitro dose response studies Set 2. [Related pubchem assays (depositor defined):AID1654, AID1661, AID1878]; format: functional
Sequence of Dual specificity protein phosphatase 3 (P51452 whole entry): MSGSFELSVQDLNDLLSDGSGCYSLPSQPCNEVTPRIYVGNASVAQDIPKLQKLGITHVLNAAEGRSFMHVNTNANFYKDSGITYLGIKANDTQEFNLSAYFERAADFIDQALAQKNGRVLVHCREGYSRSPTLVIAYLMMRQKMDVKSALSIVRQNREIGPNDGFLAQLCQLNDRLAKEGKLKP

[25] = biological target: T5, CAAX prenyl protease 2 (Homo sapiens, UniProt Q9Y256); assay: inhibition of Ras-converting CAAX protease Rce1 – biochemical, yeast membranes, quenched-peptide fluorescence, cherry-pick, dose response (AID 588849)
T5 sequence (Q9Y256 whole entry): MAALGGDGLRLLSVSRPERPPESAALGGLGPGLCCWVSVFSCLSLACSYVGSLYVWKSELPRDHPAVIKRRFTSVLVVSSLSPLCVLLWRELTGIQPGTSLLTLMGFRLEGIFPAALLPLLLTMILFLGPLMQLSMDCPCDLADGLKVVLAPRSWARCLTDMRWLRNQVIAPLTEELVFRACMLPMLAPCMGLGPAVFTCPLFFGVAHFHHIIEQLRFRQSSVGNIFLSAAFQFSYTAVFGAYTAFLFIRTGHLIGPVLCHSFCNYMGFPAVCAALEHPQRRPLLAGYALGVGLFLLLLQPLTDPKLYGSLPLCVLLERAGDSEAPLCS

[26] = biological target: CAAX prenyl protease 2 (Saccharomyces cerevisiae S288c, UniProt Q03530); format: biochemical
Sequence of CAAX prenyl protease 2 (Saccharomyces cerevisiae S288c, UniProt Q03530) (Q03530 whole entry): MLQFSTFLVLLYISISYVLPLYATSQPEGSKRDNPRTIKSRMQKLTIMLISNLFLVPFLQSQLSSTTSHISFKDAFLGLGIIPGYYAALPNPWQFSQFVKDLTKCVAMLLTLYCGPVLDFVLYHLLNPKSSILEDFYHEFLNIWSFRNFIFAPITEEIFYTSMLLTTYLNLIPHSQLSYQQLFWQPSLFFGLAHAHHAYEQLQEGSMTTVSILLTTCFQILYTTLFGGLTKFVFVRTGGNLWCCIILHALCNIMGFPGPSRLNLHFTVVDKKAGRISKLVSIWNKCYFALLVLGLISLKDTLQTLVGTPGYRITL

[27] = biological target: Troponin, cardiac muscle (Homo sapiens, UniProt P19429+P45379+P63316); assay: Fluorescence-based biochemical high throughput dose response assay for activators of the calcium sensitivity of cardiac Regulated Thin Filaments (RTF). [Related pubchem assays (depositor defined):AID493008, AID493018, AID504382, AID504383]; format: protein-complex assay
[28] = biological target: T6, G-protein coupled receptor 35 (Homo sapiens, UniProt Q9HC97); assay: SAR analysis of Agonists of the GPR35 Receptor using an Image-Based Assay - Set 3. [Related pubchem assays (depositor defined):AID1961, AID1965]; format: functional
T6 sequence (Q9HC97 whole entry): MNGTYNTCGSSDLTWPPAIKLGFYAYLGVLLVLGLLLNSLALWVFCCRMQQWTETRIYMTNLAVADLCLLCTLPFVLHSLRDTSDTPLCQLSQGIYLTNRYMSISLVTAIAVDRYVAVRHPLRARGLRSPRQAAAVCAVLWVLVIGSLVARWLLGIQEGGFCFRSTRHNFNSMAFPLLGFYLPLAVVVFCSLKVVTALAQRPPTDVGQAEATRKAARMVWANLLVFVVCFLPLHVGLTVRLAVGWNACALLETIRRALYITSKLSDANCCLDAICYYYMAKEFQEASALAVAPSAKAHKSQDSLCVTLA

[29] = biological target: T7, Cannabinoid receptor 2 (Homo sapiens, UniProt P34972); assay: SAR analysis of agonists of the Cannabinoid Receptor 2 using an Image-Based Assay - Set 2. [Related pubchem assays (depositor defined):AID1961, AID1965]; format: functional
T7 sequence (P34972 whole entry): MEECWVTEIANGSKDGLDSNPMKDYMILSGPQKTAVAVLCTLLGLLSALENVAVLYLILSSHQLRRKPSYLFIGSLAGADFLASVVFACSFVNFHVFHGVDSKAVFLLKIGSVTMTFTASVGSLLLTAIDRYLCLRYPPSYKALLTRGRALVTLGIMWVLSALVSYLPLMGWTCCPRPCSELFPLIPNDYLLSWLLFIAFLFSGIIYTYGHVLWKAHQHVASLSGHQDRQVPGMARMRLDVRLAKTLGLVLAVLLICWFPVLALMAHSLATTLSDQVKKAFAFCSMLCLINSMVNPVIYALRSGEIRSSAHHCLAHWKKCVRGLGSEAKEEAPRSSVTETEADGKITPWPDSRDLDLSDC

[30] = biological target: T1, G-protein coupled receptor 55; assay: SAR analysis of selective Agonists of GPR55 using an Image-Based Assay - Set 2. [Related pubchem assays (depositor defined):AID1961, AID1965]; format: functional
[31] = biological target: T8, Cannabinoid receptor 1 (Homo sapiens, UniProt P21554); assay: SAR analysis of agonists of the Cannabinoid Receptor 1 using an Image-Based Assay - Set 3. [Related pubchem assays (depositor defined):AID1961, AID1965]; format: functional
T8 sequence (P21554 whole entry): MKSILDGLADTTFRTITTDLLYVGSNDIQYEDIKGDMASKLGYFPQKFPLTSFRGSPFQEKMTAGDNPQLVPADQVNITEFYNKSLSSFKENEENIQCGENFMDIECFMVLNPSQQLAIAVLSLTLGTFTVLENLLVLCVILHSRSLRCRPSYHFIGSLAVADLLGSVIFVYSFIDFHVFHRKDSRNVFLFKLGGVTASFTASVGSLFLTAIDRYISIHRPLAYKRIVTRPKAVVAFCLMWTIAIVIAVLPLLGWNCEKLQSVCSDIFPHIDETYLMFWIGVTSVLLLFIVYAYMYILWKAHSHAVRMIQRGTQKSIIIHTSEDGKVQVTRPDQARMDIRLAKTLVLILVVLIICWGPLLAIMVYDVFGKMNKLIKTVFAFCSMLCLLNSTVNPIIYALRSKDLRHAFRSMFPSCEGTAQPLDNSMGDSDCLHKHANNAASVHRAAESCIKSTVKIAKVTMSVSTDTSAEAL

[32] = biological target: T7, Cannabinoid receptor 2; assay: SAR analysis of antagonists of the Cannabinoid Receptor 2 using an Image-Based Assay - Set 2. [Related pubchem assays (depositor defined):AID1961, AID1965]; format: functional
[33] = biological target: T8, Cannabinoid receptor 1; assay: SAR analysis of antagonists of the Cannabinoid Receptor 1 using an Image-Based Assay - Set 3. [Related pubchem assays (depositor defined):AID1961, AID1965]; format: functional
[34] = biological target: T6, G-protein coupled receptor 35; assay: SAR analysis of Antagonists of the GPR35 Receptor using an Image-Based Assay - Set 4. [Related pubchem assays (depositor defined):[…]]; format: functional
[35] = biological target: T9, Coagulation factor XII (Homo sapiens, UniProt P00748); assay: Factor XIIa Dose Response Confirmation from Single Well HTS. [Related pubchem assays (depositor defined):AID701]; format: functional
T9 sequence (P00748 whole entry): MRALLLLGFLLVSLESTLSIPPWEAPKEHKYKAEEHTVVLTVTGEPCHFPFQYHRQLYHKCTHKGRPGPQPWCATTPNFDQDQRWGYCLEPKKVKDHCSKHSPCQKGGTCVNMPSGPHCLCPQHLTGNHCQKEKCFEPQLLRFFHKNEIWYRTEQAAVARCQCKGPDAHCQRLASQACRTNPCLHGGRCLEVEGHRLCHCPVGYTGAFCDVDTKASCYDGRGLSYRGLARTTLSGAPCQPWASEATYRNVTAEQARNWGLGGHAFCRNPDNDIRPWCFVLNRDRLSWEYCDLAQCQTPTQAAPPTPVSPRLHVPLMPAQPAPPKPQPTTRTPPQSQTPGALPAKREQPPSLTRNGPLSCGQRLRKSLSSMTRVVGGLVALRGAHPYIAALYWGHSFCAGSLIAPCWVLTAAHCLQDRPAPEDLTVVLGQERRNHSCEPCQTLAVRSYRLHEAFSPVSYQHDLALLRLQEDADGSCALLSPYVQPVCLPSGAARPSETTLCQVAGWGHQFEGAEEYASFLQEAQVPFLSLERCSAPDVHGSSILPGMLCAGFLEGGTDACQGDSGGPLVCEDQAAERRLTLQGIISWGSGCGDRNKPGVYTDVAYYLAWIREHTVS

Sequence of DNA damage-inducible transcript 3 protein (P35639 whole entry): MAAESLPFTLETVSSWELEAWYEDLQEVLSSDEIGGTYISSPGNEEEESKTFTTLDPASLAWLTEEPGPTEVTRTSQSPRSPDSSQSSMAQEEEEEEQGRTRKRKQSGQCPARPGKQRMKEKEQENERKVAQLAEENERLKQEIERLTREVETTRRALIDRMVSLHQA

SMILES: CCOc1cccc(CN2CCN(c3cccc(C(F)(F)F)c3)CC2)c1O
- Absolute IC50 (CHOP) [1]: 10 µM

SMILES: CCN(CC)c1ccc(-c2nn3c(-c4[nH]nc5c4CCC5)nnc3s2)cc1
- EC50 [2]: < 0.1 µM (active)
- IC50 [3]: 61.1 µM (inactive)
- EC50 [4]: 0.377 µM (active)
- EC50 [5]: 0.972 µM (active)
- IC50 [6]: 0.667 µM (active)
- EC50 [7]: 1.06 µM (active)
- EC50 [8]: 0.859 µM (active)
- IC50 [9]: > 20 µM (inactive)
- EC50 [10]: 0.294 µM (active)
- EC50 [11]: 0.75 µM (active)
- EC50 [12]: 1.21 µM (active)

SMILES: CCCCC1=CC2=CC(=O)C(C)(OC(=O)CC)C(=O)C2=CN1C1CCCCC1 (stereo not given)
- EC50 [13]: > 100 µM (inactive)

SMILES: c1ccc2c(-c3c[nH]c4ccccc34)c3ccccc3nc2c1
- EC50 [14]: 8.94 µM (active)
- IC50 [15]: 4.83 µM (active)
- EC50 [16]: 15.8 µM (active)
- EC50 [17]: > 150 µM (not active)

SMILES: COc1ccc(C(=O)NC(C(=O)O)c2ccccc2)cc1 (stereo not given)
- IC50 [18]: > 25 µM (inactive)

SMILES: COc1cccc(-c2sc3ccccc3c2-c2ccc(OCCN3CCCC3)cc2)c1
- AC50 [19]: 49.2 µM (active)
- AC50 [20]: 2.58 µM (active)
- EC50 [21]: > 42.9 µM (inactive)
- IC50 [22]: > 20 µM (inactive)

SMILES: COc1ccc(N2CCN(C(=O)Nc3ccc(S(N)(=O)=O)cc3)CC2)cc1
- IC50 [23]: 51 µM (active)
- IC50 [24]: > 100 µM (inactive)

SMILES: CN1c2ccccc2-c2nc3ccccc3n2C1c1ccncc1 (stereo not given)
- AC50 [25]: 2.65 µM (active)
- AC50 [26]: 68.9 µM (active)

SMILES: CC1=CC(=C(C#N)C#N)C=C(C)N1Cc1ccc(Cl)cc1
- EC50 [27]: > 71.5 µM (inactive)

SMILES: Cc1cccc(N2CCN(C(=O)c3cc(S(=O)(=O)N(C)C)ccc3Cl)CC2)c1C
- EC50 [28]: > 32 µM (inactive)
- EC50 [29]: > 32 µM (inactive)
- EC50 [30]: 1.53 µM (active)
- EC50 [31]: > 32 µM (inactive)
- IC50 [32]: > 32 µM (inactive)
- IC50 [33]: 15.6 µM (inactive)
- IC50 [34]: > 32 µM (inactive)

SMILES: CC1=CC(=NOC(=O)c2cccc([N+](=O)[O-])c2)C=C(C)C1=O
- IC50 [35]: 1.94 µM (active)
